Measured values reported in patent publication US6794396B2, “Substituted pyridines useful for inhibiting cholesteryl ester transfer protein activity” (Pharmacia Corporation, priority 1998, dated 2004).

Each compound was assayed against T1, CETP (Homo sapiens, UniProt P11597) (assay: CETP activity in vitro: transfer of [3H]CE from HDL donor to LDL acceptor particles). Conditions: 50% inhibition of [3H]CE transfer from HDL to LDL, 2 hours at 37° C.; read-out: IC50(μm).
T1 construct: made in house; host or cells: CHO cells (serum-free conditioned medium)
T1 sequence (P11597 18-493): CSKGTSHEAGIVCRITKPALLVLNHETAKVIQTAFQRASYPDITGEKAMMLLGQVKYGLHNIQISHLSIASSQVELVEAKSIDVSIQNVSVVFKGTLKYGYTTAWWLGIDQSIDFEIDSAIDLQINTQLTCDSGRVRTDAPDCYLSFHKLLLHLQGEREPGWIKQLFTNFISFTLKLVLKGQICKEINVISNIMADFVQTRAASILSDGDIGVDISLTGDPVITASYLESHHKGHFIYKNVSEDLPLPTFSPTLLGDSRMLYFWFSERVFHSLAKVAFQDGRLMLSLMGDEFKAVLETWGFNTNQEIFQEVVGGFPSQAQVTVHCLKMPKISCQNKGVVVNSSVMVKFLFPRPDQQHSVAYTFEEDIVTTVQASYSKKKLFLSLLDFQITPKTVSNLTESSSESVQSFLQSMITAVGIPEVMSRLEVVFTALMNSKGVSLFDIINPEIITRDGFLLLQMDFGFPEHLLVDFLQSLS
Format: biochemical
Description: The ability of compounds to inhibit CETP were assessed using an in vitro assay that measured the rate of transfer of radiolabeled cholesteryl ester ([^3H]CE) from HDL donor particles to LDL acceptor particles. Details of the assay are provided by Glenn et al. (“Quantification of Cholesteryl Ester Transfer Protein (CETP): A) CETP Activity and B) Immunochemical Assay of CETP Protein,” Meth. Enzymol., Glenn and Melton (Meth. Enzymol., 263, 339-351 (1996), which is incorporated herein by reference). CETP was obtained from the serum-free conditioned medium of CHO cells transfected with a cDNA for CETP (Wang, S. et al. J. Biol Chem. 267, 17487-17490 (1992), which is incorporated herein by reference).
To measure CETP activity, [^3H]CE-labeled HDL, LDL, CETP and assay buffer (50 mM tris(hydroxymethyl)amino-methane, pH 7.4; 150 mM sodium chloride; 2 mM ethylenediamine-tetraacetic acid; 1% bovine serum albumin) were incubated in a volume of 200 μl, for 2 hours at 37° C. in 96 well plates. LDL was differentially precipitated by the addition of 50 μl of 1% (w/v) dextran sulfate/0.5 M magnesium chloride, mixed by vortex, and incubated at room temperature for 10 minutes The solution (200μl) was transferred to a filter plate (Millipore). After filtration, the radioactivity present in the precipitated LDL was measured by liquid scintillation counting.
This value was defined as the IC50.

Row | SMILES | IC50 [µM]
1 | COC(=O)c1c(C(F)F)nc(C(F)(F)F)c(CSc2ccc(C(C)(C)C)cc2)c1CC(C)C [Compound 3, Methyl 5-(4-t-Butylphenylthiomethyl)-2-(difluoromethyl)-4-(2-methylpropyl)-6-(trifluoromethyl)-3-pyridinecarboxylate] | 9
2 | CCOC(=O)c1c(C(F)(F)F)nc(C(F)(F)F)c(C)c1Sc1ccc(C(C)C)cc1 [Compound 11, Ethyl 2,6-Bis(trifluoromethyl)-4-[4-(isopropylphenyl)thio]-5-methyl-3-pyridinecarboxylate] | 25
3 | COC(=O)c1c(C(F)F)nc(C(F)(F)F)c(C(O)c2ccco2)c1CC(C)C (stereo not drawn) [Compound 13, Methyl 2-(difluoromethyl)-5-(1-hydroxyl-furylmethyl)-4-(2-methylpropyl)-6-(trifluoromethyl)-3-pyridinecarboxylate] | 30
4 | COC(=O)c1c(C(F)F)nc(C(F)(F)F)c(N=C=S)c1CC(C)C [Compound 18] | 35
5 | CCOC(=O)c1c(C(F)F)nc(C(F)(F)F)c(C(=O)OCC)c1SC1CCCC1 [Compound 22, Diethyl 2-(Difluoromethyl)-4-(cyclopentylthio)-6-(trifluoromethyl)-3,5-pyridinedicarboxylate] | 40
6 | CCOC(=O)c1c(Sc2ccccc2)cc(C(F)(F)F)nc1C(F)(F)F [Compound 23] | 40
7 | COC(=O)c1c(C(F)F)nc(C(F)(F)F)c(N=C(OC)SC)c1CC(C)C [Compound 27, Methyl 2-(Difluoromethyl)-5-{[methoxy (methylthio)methylene]amino)-4-(2-methylpropyl)-6-(trifluoromethyl)-3-pyridinecarboxylate] | 40
8 | COC(=O)c1c(C(F)F)nc(C(F)(F)F)c(CI)c1CC(C)C [Compound 32, Methyl 2-(Difluoromethyl)-5-(iodomethyl)-4-(2-methylpropyl)-6-(trifluoromethyl)-3-pyridinecarboxylate] | 45
9 | COC(=O)c1c(C(F)F)nc(C(F)(F)F)c(C(OC)c2ccns2)c1CC(C)C (stereo not drawn) [Compound 34, Methyl 2-(Difluoromethyl)-5-[(methoxy)isothiazol-5-ylmethyl]-4-(2-methylpropyl)-6-(trifluoromethyl)-3-pyridinecarboxylate] | 45
10 | COC(=O)c1c(OCc2ccccc2)cc(C(F)(F)F)nc1C(F)(F)F [Compound 37, Methyl 2,6-bis(Trifluoromethyl)-4-(benzyloxy)-3-pyridinecarboxylate] | 45
11 | COC(=O)c1c(C(F)F)nc(C(F)(F)F)c(COC(=O)c2ccccc2)c1CC1CC1 [Compound 41, Methyl 5-(Benzoyloxymethyl)-2-(difluoromethyl)4-(cyclopropylmethyl)-6-(trifluoromethyl)-3-pyridinecarboxylate] | 50
12 | COC(=O)c1cc(CSC(=S)N(C)C)c(C(F)(F)F)nc1C(F)F [Compound 43, Methyl 2-(Difluoromethyl)-5-[(dimethylaminothionothio)methyl]-6-(trifluoromethyl)-3-pyridinecarboxylate] | 50
13 | CCOC(=O)c1c(C(F)(F)F)nc(C(F)F)c(NC(=O)Nc2c(C(F)F)nc(C(F)(F)F)c(C(=O)OCC)c2CC)c1CC [Compound 48] | 50
14 | CCOC(=O)c1c(C(F)(F)F)nc(C(F)(F)F)c(C(=O)OC)c1OCC [Compound 52] | 50
15 | CCOC(=O)c1c(C(F)(F)F)nc(C(F)(F)F)c(C)c1OC(C)C [Compound 53, Ethyl 2,6-Bis(trifluoromethyl)-4-(isopropoxy)-5-methyl-3-pyridinecarboxylate] | 50
16 | COC(=O)c1c(C(F)(F)F)ncc(C(=O)c2cnc(C(F)(F)F)c(C(=O)OC)c2OC(C)C)c1OC(C)C [Compound 54] | 50

Same assay, conditions: IC50(μm), 50% inhibition of [3H]CE transfer from HDL to LDL, 2 hours at 37° C.

Row | SMILES | IC50 [µM]
17 | COC(=O)c1c(C(F)F)nc(C(F)(F)F)c(N=S=O)c1CC(C)C [Compound 1] | 2
18 | CCOC(=O)c1c(C(F)(F)F)nc(C(F)F)c(C(=O)OC)c1S [Compound 2, 3-Methyl 5-Ethyl 2-(Difluoromethyl)-4-mercapto-6-(trifluoromethyl)-3,5-pyridinedicarboxylate] | 3
19 | CCCCCCCCCCCCCCCC(=O)Sc1c(C(F)(F)F)nc(C(F)F)c(C(=O)OC)c1CC(C)C [Compound 5, Methyl 2-(Difluoromethyl)-4-(2-methylpropyl)-5-(palmitoylthio)-6-(trifluoromethyl)-3-pyridinecarboxylate] | 8
20 | COC(=O)Sc1c(C(F)(F)F)nc(C(F)F)c(C(=O)OC)c1CC(C)C [Compound 6, Methyl 2-(Difluoromethyl)-4-(2-methylpropyl)-5-[(methoxycarbonyl)thio]-6-(trifluoromethyl)-3-pyridinecarboxylate] | 8
21 | CC(C)Cc1c(C(=O)OC(C)(C)C)c(C(F)F)nc(C(F)(F)F)c1C(=O)OC(C)(C)C [Compound 9, Di-t-Butyl 2-(difluoromethyl)-4-(2-methylpropyl)-6-(trifluoromethyl)-3,5-pyridinedicarboxylate] | 20
22 | COC(=O)c1c(C(F)(F)F)nc(C(F)(F)F)c(C2=NCCS2)c1CC(C)C [Compound 12, Methyl 2,6-Bis(trifluoromethyl)-5-(4,5-dihydro-2-thiazoly)-4-(2-methylpropyl)-3-pyridinecarboxylate] | 25
23 | COC(=O)c1c(C(F)F)nc(C(F)(F)F)c(C(=O)SC(C)C)c1C1CCC1 [Compound 14, Methyl 2-(Difluoromethyl)-5-[(i-propylthio)carbonyl]-4-(cyclobutyl)-6-(trifluoromethyl)-3-pyridinecarboxylate] | 30
24 | COC(=O)c1c(C(F)F)nc(C(F)(F)F)c(N=C(CBr)OC)c1CC(C)C [Compound 16] | 30
25 | COC(=O)c1c(C(F)F)nc(C(F)(F)F)c(C#C[Si](C)(C)C)c1CC(C)C [Compound 19, Methyl 2-(Difluoromethyl)-4-(2-methylpropyl)-6-(trifluoromethyl)-5-[(trimethylsilyl)ethynyl]-3-pyridinedicarboxylate] | 35
26 | CCSC(C)c1c(C(F)(F)F)nc(C(F)F)c(C(=O)OC)c1CC1CC1 (stereo not drawn) [Compound 21] | 40
27 | COC(=O)c1c(C(F)F)nc(C(F)(F)F)c(N=COCC2CO2)c1CC(C)C (stereo not drawn) [Compound 30] | 40
28 | COC(=O)c1c(C(F)F)nc(C(F)(F)F)c(SCSC)c1CC(C)C [Compound 33, Methyl 2-(Difluoromethyl)-4-(2-methylpropyl)-5-(methylthiomethylthio)-6-(trifluoromethyl)-3-pyridinecarboxylate] | 45
29 | COC=C(Br)c1c(C(F)(F)F)nc(C(F)F)c(C(=O)OC)c1CC1CC1 [Compound 35, Methyl 5-(1-Bromo-2-methoxyethenyl)-4-(cyclopropylmethyl)-2-(difluoromethyl)-6-(trifluoromethyl)-3-pyridinecarboxylate] | 45
30 | CCOC(=O)c1c(C(F)(F)F)nc(C(F)(F)F)c(C(=O)OCC)c1CC(C)C [Compound 36, Diethyl 2,6-Bis(trifluoromethyl)-4-(2-methylpropyl)-3,5-pyridinedicarboxylate] | 45
31 | CCOC(=O)c1c(C(F)F)nc(C(F)(F)F)c(C(=O)OCC)c1C1CCCCC1 [Compound 38] | 50
32 | CCOC(=O)c1c(C(F)F)nc(C(F)(F)F)c(C(=O)OCC)c1SC(C)(C)C [Compound 39, Diethyl 2-(Difluoromethyl)-4-(t-butylthio)-6-(trifluoromethyl)-3,5-pyridine-dicarboxylate] | 50
33 | COC(=O)c1c(C(F)F)nc(C(F)(F)F)c(N=C(SC)SC)c1CC(C)C [Compound 42, Methyl 5-{[Bis(methylthio)methylene]amino}-2-(difluoromethyl)-4-(2-methylpropyl)-6-(trifluoromethyl)-3-pyridinecarboxylate] | 50
34 | COC(=O)c1c(C(F)F)nc(C(F)(F)F)c(C(=O)OC)c1CCC(C)C [Compound 49] | 50
35 | COC(=O)c1c(C(F)F)nc(C(F)(F)F)c(C(=NC(C)C)SC)c1CC(C)C [Compound 58, Methyl 2-(difluoromethyl)-5-{[isopropylimino(methylthio)methyl]}-4-(2-methylpropyl)-6-(trifluoromethyl)-3-pyridinecarboxylate] | 55
36 | COC(=O)c1c(C(F)F)nc(C(F)(F)F)c(C2OCCCO2)c1CC(C)C [Compound 59, Methyl 2-(Difluoromethyl)-5-(1,3-dioxan-2-yl)-4-(2-methylpropyl)-6-(trifluoromethyl)-3-pyridinecarboxylate] | 55
